Assay results taken from patent US7794761B2, “Methods for inducing anti-anxiety and calming effects in animals and humans” (Seroctin Research & Technology, Inc., priority 2000, dated 2010).

System: montane vole, Microtus montanus
Assay: Uterine weight response in female montane voles after intraperitoneal injection
Type: in vivo
Details: i.p. 5 mcg/day for three days; for Average Uterine Weight: sacrificed 24 hours after last injection, control 15.2 ± 2.4
Experimental: Female montane voles, Microtis montanus, received intra peritoneal injections of representative compounds belonging to Formulas I, II and III for three consecutive days and sacrificed twenty-four (24) hours after the last injection to examine uterine weight response. To assess the properties of each representative compound, pure ones made by chemical means (University of Utah Department of Chemistry, Salt Lake City, Utah) were prepared specifically for this test. All compounds were injected at a dose level of 5 mcg/day, dissolved in five percent (5%) propylene glycol for a total injection volume of 0.5 ml. Control animals received 0.5 ml of five percent (5%) propylene glycol only. All voles were 4-5 weeks old and weighed 25-29 g.

| SMILES | Average Uterine Weight [mg] | increase in uterine weight over control group [%] |
| --- | --- | --- |
| COc1ccc(O)c(NC(C)=O)c1 [2-hydroxy-5-methoxyacetanilide] | 21.1 ± 4.4 |  |
| COc1ccc2oc(=O)[nH]c2c1 [5-methoxy-2-benzoxazolinone] | 20.0 ± 4.7 | 32 |
| COc1ccc(O)c(N)c1 [2-amino-4-methoxyphenol] | 22.2 ± 3.2 |  |
| COc1ccc(NC(C)=O)c(O)c1 [2-hydroxy-4-methoxyacetanilide] | 23.1 ± 2.7 |  |
| COc1ccc(N)c(O)c1 [2-amino-5-methoxyphenol] | 21.8 ± 3.5 |  |
| CCOc1ccc(NC(C)=O)c(O)c1 [2-hydroxy-4-ethoxyacetanilide] | 22.2 ± 3.9 |  |
| COc1ccc2[nH]c(=O)oc2c1 [6-methoxy-2-benzoxazolinone] | 27.7 ± 5.6 | 82 |
